Here are results for one compound from patent US20150322083A1, “(THIENO[2,3-b][1,5]BENZOXAZEPIN-4-YL)PIPERAZIN-1-YL COMPOUNDS AS SELECTIVE 5-HT2A INVERSE AGONISTS” (Eli Lilly and Company, priority 2014, published 2015).

The target in one test is Dopamine D2 (Homo sapiens, UniProt P14416). Description: Dopamine D2 binding. As to the method:
(§1) Curves are evaluated using a 4-parameter logistic nonlinear equation to obtain the concentration of competitor causing 50% inhibition of radioligand binding (IC50). Equilibrium dissociation constants (Ki) are calculated according to the equation Ki=IC50/(1+L/Kd), where L equals the concentration of radioligand used in the experiment and Kd equals the equilibrium dissociation constant of the radioligand for the receptor, determined from standard saturation analysis or homologous competition experiments. Reported values for Ki, where n values are indicated, are shown as geometric mean±the standard error of the mean (SEM), with the number of replicate determinations indicated by n. Geometric means are calculated by the equation GeoMean=10̂(Average(log Ki 1+log Ki 2+ . . . log Ki n)/[…]).
(§2) Further, the compounds of the invention may be tested in binding assays and functional activity assays by well known methods for other physiologically important receptors such as, but not limited to, the hERG channel, other serotonin receptors (specifically 5-HT1B receptors, lack of agonist activity at 5-HT2B receptors, 5-HT2C, 5-HT5, 5-HT6, and 5-HT7 receptors), dopaminergic receptors (specifically D1, D2, and D3), H1 receptors, GABAA receptors, adrenergic receptors and monoamine transporters.

In a further test the target is H1 receptors (Homo sapiens, UniProt P35367). Description: H1 receptor binding. As to the method: as §1, §2
The next test has as its target 5-HT2B (Homo sapiens, UniProt P41595). Description: 5-HT2B binding (selectivity data). The protocol: as §1, §2
The target of a further test is Serotonin Transporter (Homo sapiens, UniProt P31645). Description: Serotonin transporter binding. The protocol:
as §1, §2

A further test has as its target Adrenergic alpha1A (Homo sapiens, UniProt P35348). Description: Adrenergic alpha1A binding. The protocol:
as §1, §2

The test system of another test is native GABAA receptors. Description: GABAA antagonism using native receptors in primary neuronal cultures (FLIPR calcium flux). The format is cell-based. The following applies: against 10 μM GABA, rat cortical embryonic neurons. As to the method: Activity of compounds on native GABAA receptors is evaluated by monitoring calcium fluxes using a 96 well format FLIPR® system (Fluorometric Imaging Plate Reader (FLIPR®, Molecular Devices). Briefly, cortical embryonic neurons are dissociated from E18 rat embryos and plated at optimum density into black-walled, transparent bottom poly-D-lysine coated 96-well FLIPR® plates. After loading the cells with a calcium sensitive dye (Fluo4-AM, Molecular Devices), the cells are bathed in a solution containing low chloride (chloride replaced by gluconate). Under these conditions activation of GABAA receptors causes an efflux of chloride ions (in the direction of the chemical gradient), which results in membrane depolarization and consequently activation of voltage gated calcium channels (VGCCs). Calcium influx through VGCCs is recorded and analysed offline using the FLIPR® system. For a pharmacological validation of the assay, concentration response curves (CRC) are recorded for the standard agonist (GABA) and standard antagonist (Gabazine). […]
The antagonist effects of compounds are quantified using 10-point dose response curves by comparing the peak fluorescent responses to the agonist GABA in the presence and absence of compound. […] Antagonist effects are calculated as a percent of the assay window. […]
On the technique in general: Calcium flux is commonly read through the fluorescence of an indicator in the cells.

Test [1] concerns the target recombinant human 5-HT2A receptor (Homo sapiens, UniProt P28223). Description: 5-HT2A competition binding assay ([3H]-Ketanserin, SPA). More on the design: expressed in transfected cells. As to the method:
[^3H]-Ketanserin binding experiments are carried out in SPA 96-well format. Membranes used in this assay are prepared from AV-12 cells stably expressing recombinant 5-HT2A receptors (human). The incubation is initiated by the addition of a mixture of WGA YSi SPA beads (1 mg/well, Perkin Elmer (MA, USA), Product No. RPNQ0011) and 2 μg membranes to assay buffer (67 mM Tris, 0.5 mM EDTA; pH 7.6) containing 3.1 nM [^3H]-Ketanserin and varying concentrations of the test compound (10 point concentration response curves). Non-specific binding is determined in the presence of 20 μM 1-(1-naphthyl)piperazine. Samples are incubated for 4 hr. at room temperature (22° C.) and then read in a microplate scintillation counter.
(§3) Curves are evaluated using a 4-parameter logistic nonlinear equation to obtain the concentration of competitor causing 50% inhibition of radioligand binding (IC50). Equilibrium dissociation constants (Ki) are calculated according to the equation Ki=IC50/(1+L/Kd), where L equals the concentration of radioligand used in the experiment and Kd equals the equilibrium dissociation constant of the radioligand for the receptor, determined from standard saturation analysis or homologous competition experiments. […]

In a further test the target is Dopamine Transporter (Homo sapiens, UniProt Q01959). Description: Dopamine transporter binding. As to the method:
as §1, §2

For test [2], the target named is T1, recombinant 5-HT2C receptors (human) (Homo sapiens, UniProt P28335).
T1 construct: expressed in transfected cells
Description: 5-HT2C competition binding assay ([125I]-(±)DOI, SPA). As to the method:
[^125I]-(±)DOI binding experiments are carried out in SPA 96-well format. Membranes used in this assay are prepared from AV-12 cells stably expressing recombinant 5-HT2C receptors (human). The incubation is initiated by the addition of a mixture of WGA PVT SPA beads (0.5 mg/well, Perkin Elmer (MA, USA), RPNQ0001) and 2.5 μg membranes to assay buffer (50 mM Tris-HCl, 10 mM MgCl2, 0.5 mM EDTA, 10 μM pargyline, 0.1% ascorbic acid, pH7.4) containing 0.2 nM [[^125I]-(±)DOI and varying concentrations of the test compound (10 point concentration response curves). Non-specific binding is determined in the presence of 20 μM 1-(1-naphthyl)piperazine. Samples are incubated for 4 hr. at room temperature (22° C.) and then read in a microplate scintillation counter.
as §3

For the next test, the target named is Adrenergic alpha1B (Homo sapiens, UniProt P35368). Description: Adrenergic alpha1B binding. The protocol: as §1, §2
The target in a further test is Adrenergic alpha2A (Homo sapiens, UniProt P08913). Description: Adrenergic alpha2A binding. The protocol: as §1, §2
For a further test, the target named is Dopamine D1 (Homo sapiens, UniProt P21728). Description: Dopamine D1 binding. The protocol:
as §1, §2

For another test, the target named is Dopamine D3 (Homo sapiens, UniProt P35462). Description: Dopamine D3 binding. The protocol: as §1, §2
Another test has as its target Norepinephrine Transport (Homo sapiens, UniProt P23975). Description: Norepinephrine transporter binding. As to the method: as §1, §2
A further test concerns the target Adrenergic alpha2C (Homo sapiens, UniProt P18825). Description: Adrenergic alpha2C binding. As to the method: as §1, §2

Structures can show the parent of a compound that is named as a salt.

Chain of Serotonin Transporter (P31645 whole entry): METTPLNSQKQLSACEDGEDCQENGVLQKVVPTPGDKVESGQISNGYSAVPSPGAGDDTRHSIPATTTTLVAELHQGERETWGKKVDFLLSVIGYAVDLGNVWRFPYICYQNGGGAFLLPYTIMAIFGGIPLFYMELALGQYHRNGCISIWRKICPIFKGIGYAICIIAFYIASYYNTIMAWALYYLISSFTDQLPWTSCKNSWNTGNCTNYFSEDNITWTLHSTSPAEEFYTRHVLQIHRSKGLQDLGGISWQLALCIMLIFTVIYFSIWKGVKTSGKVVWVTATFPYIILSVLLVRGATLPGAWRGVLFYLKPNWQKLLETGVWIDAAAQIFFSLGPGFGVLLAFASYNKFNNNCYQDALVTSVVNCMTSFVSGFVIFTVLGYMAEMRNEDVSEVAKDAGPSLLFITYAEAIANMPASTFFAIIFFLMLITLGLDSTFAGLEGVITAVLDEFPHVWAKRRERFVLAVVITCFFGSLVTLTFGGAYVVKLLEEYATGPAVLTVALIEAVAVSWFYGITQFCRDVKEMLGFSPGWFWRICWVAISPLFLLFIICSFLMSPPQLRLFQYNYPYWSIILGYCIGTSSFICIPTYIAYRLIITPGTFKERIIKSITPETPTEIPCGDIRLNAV
Chain of 5-HT2B (P41595 whole entry, species assumed): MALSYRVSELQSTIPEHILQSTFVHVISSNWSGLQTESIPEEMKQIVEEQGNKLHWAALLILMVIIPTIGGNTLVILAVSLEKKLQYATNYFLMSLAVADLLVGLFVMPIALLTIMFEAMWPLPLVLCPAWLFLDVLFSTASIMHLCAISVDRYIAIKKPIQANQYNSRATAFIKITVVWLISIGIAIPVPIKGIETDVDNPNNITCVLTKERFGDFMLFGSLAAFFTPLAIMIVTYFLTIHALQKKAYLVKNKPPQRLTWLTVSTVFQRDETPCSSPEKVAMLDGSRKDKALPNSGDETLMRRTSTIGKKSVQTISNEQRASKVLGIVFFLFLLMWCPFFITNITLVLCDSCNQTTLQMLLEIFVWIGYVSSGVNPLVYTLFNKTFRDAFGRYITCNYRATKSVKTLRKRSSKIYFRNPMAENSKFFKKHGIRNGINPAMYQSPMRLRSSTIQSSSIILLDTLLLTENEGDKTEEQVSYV
Chain of Norepinephrine Transport (P23975 whole entry): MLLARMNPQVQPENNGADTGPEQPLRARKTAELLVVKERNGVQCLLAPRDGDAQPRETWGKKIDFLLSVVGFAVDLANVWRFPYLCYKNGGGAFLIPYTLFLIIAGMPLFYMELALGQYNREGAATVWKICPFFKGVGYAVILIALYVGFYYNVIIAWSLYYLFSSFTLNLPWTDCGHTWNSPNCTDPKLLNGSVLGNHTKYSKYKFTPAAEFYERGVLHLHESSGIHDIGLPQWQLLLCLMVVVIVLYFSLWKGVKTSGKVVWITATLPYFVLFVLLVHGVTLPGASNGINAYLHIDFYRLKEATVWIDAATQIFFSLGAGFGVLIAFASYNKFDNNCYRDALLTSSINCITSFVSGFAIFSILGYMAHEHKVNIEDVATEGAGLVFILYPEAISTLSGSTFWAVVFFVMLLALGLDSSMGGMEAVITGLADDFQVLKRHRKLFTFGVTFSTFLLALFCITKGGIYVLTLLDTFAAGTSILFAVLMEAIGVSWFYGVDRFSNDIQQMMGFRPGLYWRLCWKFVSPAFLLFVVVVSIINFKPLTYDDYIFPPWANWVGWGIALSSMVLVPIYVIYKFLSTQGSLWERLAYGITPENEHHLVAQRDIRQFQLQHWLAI
Chain of Adrenergic alpha1B (P35368 whole entry): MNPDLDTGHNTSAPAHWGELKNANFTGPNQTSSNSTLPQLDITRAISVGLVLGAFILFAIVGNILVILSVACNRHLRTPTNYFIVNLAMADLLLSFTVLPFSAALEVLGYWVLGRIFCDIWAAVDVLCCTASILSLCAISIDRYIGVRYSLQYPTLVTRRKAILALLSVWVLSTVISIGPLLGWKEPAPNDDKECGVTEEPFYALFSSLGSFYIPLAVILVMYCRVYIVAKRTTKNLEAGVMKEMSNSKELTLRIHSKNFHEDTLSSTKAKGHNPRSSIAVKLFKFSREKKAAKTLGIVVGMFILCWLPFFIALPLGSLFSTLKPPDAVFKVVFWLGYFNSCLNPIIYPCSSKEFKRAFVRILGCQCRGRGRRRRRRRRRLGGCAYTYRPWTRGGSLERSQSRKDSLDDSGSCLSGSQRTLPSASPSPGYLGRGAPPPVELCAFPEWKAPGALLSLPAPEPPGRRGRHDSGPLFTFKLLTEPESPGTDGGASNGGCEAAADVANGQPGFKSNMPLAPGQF
Chain of Adrenergic alpha2A (P08913 whole entry): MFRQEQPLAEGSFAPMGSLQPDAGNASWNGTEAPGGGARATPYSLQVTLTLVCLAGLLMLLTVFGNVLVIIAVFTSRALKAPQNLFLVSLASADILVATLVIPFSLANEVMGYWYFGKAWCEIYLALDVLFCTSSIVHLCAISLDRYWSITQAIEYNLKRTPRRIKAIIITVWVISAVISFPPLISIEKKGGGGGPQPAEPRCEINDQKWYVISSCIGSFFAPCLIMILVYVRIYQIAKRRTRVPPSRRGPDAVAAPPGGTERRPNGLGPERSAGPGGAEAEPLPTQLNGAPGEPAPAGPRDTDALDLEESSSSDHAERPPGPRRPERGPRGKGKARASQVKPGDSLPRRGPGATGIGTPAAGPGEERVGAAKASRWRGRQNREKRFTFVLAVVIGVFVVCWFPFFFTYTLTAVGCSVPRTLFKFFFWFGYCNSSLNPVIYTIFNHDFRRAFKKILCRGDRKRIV
Chain of Dopamine D2 (P14416 whole entry): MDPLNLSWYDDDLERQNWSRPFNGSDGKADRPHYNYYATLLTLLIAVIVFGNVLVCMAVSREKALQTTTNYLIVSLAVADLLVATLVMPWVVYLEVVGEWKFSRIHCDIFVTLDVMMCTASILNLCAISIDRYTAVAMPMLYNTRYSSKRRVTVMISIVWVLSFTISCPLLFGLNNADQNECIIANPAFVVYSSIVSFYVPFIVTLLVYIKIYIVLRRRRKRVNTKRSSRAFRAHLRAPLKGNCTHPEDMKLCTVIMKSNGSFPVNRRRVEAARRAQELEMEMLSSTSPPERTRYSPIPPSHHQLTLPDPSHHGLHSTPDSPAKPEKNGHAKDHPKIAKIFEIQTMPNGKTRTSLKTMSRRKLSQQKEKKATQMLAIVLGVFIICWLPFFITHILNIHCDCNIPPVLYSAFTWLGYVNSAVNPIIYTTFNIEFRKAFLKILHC
Chain of recombinant human 5-HT2A receptor (P28223 whole entry): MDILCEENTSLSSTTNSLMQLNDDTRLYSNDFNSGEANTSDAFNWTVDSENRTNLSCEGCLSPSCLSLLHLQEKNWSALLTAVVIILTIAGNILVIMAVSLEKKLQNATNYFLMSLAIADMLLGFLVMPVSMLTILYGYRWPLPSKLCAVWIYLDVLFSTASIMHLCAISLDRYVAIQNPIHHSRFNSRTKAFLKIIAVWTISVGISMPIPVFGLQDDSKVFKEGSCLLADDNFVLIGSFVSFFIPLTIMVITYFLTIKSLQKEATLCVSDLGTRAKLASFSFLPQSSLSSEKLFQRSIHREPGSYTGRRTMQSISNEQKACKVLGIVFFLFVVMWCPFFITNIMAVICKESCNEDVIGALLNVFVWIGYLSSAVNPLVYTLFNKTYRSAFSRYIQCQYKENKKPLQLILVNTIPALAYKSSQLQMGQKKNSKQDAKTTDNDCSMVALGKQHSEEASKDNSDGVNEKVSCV
Chain of Adrenergic alpha1A (P35348 whole entry): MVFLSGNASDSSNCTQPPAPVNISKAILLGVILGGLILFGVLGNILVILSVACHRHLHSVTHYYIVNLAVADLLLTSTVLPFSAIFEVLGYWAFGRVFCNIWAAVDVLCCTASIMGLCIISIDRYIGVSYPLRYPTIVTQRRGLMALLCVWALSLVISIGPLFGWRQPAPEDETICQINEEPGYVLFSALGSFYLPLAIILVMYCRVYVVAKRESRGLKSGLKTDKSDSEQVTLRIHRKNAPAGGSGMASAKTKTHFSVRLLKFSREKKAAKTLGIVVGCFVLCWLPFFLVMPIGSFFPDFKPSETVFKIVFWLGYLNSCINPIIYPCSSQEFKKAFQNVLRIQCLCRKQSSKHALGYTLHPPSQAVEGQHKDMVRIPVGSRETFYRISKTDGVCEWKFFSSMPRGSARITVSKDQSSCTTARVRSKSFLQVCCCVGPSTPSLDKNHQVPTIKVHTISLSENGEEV
Chain of Dopamine D1 (P21728 whole entry): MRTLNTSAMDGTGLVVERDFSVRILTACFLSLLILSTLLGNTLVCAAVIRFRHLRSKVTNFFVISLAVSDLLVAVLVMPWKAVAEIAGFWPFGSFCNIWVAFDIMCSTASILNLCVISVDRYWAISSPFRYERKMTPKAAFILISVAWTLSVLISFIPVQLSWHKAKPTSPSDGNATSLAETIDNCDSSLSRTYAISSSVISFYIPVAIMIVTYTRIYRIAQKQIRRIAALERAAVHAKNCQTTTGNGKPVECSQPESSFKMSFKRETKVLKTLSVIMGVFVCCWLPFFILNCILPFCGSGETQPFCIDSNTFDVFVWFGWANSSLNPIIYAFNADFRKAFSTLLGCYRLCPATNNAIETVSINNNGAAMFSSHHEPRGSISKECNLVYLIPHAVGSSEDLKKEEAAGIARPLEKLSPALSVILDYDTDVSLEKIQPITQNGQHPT
T1 sequence (P28335 33-458): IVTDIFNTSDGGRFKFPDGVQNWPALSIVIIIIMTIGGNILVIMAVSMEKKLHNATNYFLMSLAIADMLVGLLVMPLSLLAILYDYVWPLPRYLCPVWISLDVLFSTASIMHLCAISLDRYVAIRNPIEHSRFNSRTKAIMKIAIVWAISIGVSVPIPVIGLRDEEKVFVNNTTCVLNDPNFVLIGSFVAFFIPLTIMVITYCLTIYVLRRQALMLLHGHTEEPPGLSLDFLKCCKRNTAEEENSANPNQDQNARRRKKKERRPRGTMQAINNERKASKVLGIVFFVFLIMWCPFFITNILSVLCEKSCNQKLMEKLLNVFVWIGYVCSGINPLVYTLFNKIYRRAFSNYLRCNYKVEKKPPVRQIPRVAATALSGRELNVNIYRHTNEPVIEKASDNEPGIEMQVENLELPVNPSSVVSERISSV

By Ki is commonly meant a dissociation constant, usually derived from enzyme kinetics or from competition with a known ligand. Broadly, the IC50 is the concentration at which inhibition is half-maximal. `Cc1ccc2c(c1)Oc1sc(SC(C)C)cc1C(N1CCN(CC(C)(C)C(=O)O)CC1)=N2` [Example 2, 3-[4-(2-Isopropylsulfanyl-8-methyl-thieno[2,3-b][1,5]benzoxazepin-4-yl)piperazin-1-yl]-2,2-dimethyl-propanoic acid dihydrochloric acid salt]: the Ki at Dopamine D2 was over 3670 nM; on H1 receptors, 893 nM; at 5-HT2B, 767 nM; at Serotonin Transporter, over 651 nM; on Adrenergic alpha1A, over 13400 nM; in test [1], 6.2 nM. The Ki on Dopamine Transporter was over 875 nM; in test [2], 772 nM; at Adrenergic alpha1B, 10400 nM; on Adrenergic alpha2A it was over 8820 nM; on Dopamine D1, 3760 nM; on Dopamine D3, over 5880 nM. For the same compound, the Ki was over 691 nM on Norepinephrine Transport and over 6750 nM on Adrenergic alpha2C. The IC50 in the test with native GABAA receptors came to 41000 nM.
